Experimental data reported in patent US20150209327A1, “METHODS FOR THE TREATMENT OF OBESITY USING APREMILAST” (Celgene Corporation, priority 2014, published 2015).
pIC50: −log10 of the molar value. Several values for one entry are separate records, joined by “and”; a condition that tells them apart may be missing. Identical values can stand only once.

How the values were obtained:
[1] = system: TNF-α production in PBMCs; experiment: Inhibition of TNF-α production in PBMCs; format: cell-based; settings: PBMC
Text: The test methods were as described in WO 03/080049; Muller et al., J. Med. Chem., 1996, 39:3238; and Muller et al., Bioorg. Med. Chem. Lett., 1999, 9:1625-30.

PDE7 = PDE7 (Homo sapiens, UniProt Q13946); experiment: PDE7 enzyme assay; format: biochemical
Sequence of PDE7 (Q13946 whole entry): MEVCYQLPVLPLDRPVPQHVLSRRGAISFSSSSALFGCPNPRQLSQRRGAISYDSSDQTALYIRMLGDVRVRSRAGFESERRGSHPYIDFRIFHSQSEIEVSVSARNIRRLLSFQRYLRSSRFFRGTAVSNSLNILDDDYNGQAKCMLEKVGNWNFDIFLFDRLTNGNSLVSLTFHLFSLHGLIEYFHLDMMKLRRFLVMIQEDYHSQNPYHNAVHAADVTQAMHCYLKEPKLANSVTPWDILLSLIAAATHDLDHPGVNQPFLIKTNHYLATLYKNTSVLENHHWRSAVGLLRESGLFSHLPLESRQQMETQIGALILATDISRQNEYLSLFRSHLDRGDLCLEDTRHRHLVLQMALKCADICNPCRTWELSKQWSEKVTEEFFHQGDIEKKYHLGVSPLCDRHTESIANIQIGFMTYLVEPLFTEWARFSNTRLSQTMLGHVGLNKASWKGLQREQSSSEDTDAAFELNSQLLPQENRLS
Experimental: PDE1, 2, 3 and 5 enzyme assays were prepared as described by Hidaka and Asano. Biochem. Biophys. Acta., 1976, 429:485; see also Nicholsen et al., Trends Pharmaco. Sci., 1991, 12:19. The PDE6 enzyme assay was prepared according to Baehr et al., J. Biol. Chem., 1979, 254:11669 and Gillespie et al., Mol. Pharm., 1989, 36: 773. The PDE7 enzyme assay was prepared according to Bloom and Beavo. Proc. Natl. Acad. Sci. USA, 1996, 93:14188-92.

[2] = Psoriatic Arthritis (PsA) Phase 3 Data Pool: weight change; format: in vivo, human; settings: for Weight % Change Category 0%, n (%) / Weight % Change Category <−20%, n (%) / Weight % Change Category >0% to ≦5%, n (%) / Weight % Change Category >5% to ≦10%, n (%) / Weight % Change Category >10% to ≦20%, n (%) / Weight % Change Category >20%, n (%) / Weight % Change Category ≧−5% to <0%, n (%) / Weight % Change Category ≧−10% to <−5%, n (%) / Weight % Change Category ≧−20% to <−10%, n (%): Subjects as Treated; for observed weight loss of greater than 10%, subjects n (%) / percentage of subjects with weight change of -10% to <−5%: Weeks 0 to 16
Text: Apremilast has shown benefit of weight loss in both Phase 2 and Phase 3 Psoriatic Arthritis (PSA) and Psoriasis (PSOR) trials.

[3] = 20 mg BID, Apremilast-exposure Period, m = 943
[4] = 20 mg BID, End of Period (APR, apremilast exposure), Subjects as Initially Treated at Week 0
[5] = 20 mg BID, End of Period (PBC, Week 24), Subjects as Initially Treated at Week 0
[6] = 20 mg BID, End of Period (apremilast exposure), Apremilast Subjects as Treated
[7] = 20 mg BID, Week 52, Apremilast Subjects as Treated
[8] = 20 mg BID, Week 78, Apremilast Subjects as Treated
[9] = 30 mg BID, Apremilast-exposure Period, m = 944
[10] = 30 mg BID, End of Period (APR, apremilast exposure), Subjects as Initially Treated at Week 0
[11] = 30 mg BID, End of Period (PBC, Week 24), Subjects as Initially Treated at Week 0
[12] = 30 mg BID, End of Period (apremilast exposure), Apremilast Subjects as Treated
[13] = 30 mg BID, Week 52, Apremilast Subjects as Treated
[14] = 30 mg BID, Week 78, Apremilast Subjects as Treated

## CCOc1cc([C@@H](CS(C)(=O)=O)N2C(=O)c3cccc(NC(C)=O)c3C2=O)ccc1OC [Apremilast, (+)-2-[1-(3-ethoxy-4-methoxyphenyl)-2-methylsulfonylethyl]-4-acetylaminoisoindoline-1,3-dione]
[1]
  pIC50: 7.11
PDE7
  pIC50: 4.69
[2]; 20 mg BID
  weight decrease reported, subjects n (%): 10 (1.0%) n (%)
  observed weight loss of greater than 10%, subjects n (%): 6 (0.7%) n (%)
  percentage of subjects with weight change of -10% to <−5%: 4.0%
[2]; 20 mg BID, Apremilast-exposure Period
  weight loss of greater than 10%, subjects n (%): 42 (4.5%) n (%)
[2]; [3]
  Weight % Change Category 0%, n (%): 74 (7.8) n (%)
  Weight % Change Category <−20%, n (%): 1 (0.1) n (%)
  Weight % Change Category >0% to ≦5%, n (%): 280 (29.7) n (%)
  Weight % Change Category >5% to ≦10%, n (%): 42 (4.5) n (%)
  Weight % Change Category >10% to ≦20%, n (%): 14 (1.5) n (%)
  Weight % Change Category >20%, n (%): 0 n (%)
  Weight % Change Category ≧−5% to <0%, n (%): 393 (41.7) n (%)
  Weight % Change Category ≧−10% to <−5%, n (%): 98 (10.4) n (%)
  Weight % Change Category ≧−20% to <−10%, n (%): 41 (4.3) n (%)
[2]; [4]
  Change From Baseline (kg) Median (Min, Max): −0.60 (−44.3, 14.0) kg
  Weight, kg End of Period Mean ± SD: 84.38 ± 20.636 kg
[2]; 20 mg BID, End of Period (APR, apremilast exposure), Subjects as Initially Treated at Week 0, listed as APR
  Change From Baseline (kg) Mean ± SD: -1.13 kg and -1.13 ± 4.491 kg
[2]; [5]
  Change From Baseline (kg) Median (Min, Max): −0.50 (−17.2, 11.5) kg
  Weight, kg End of Period Mean ± SD: 84.47 ± 20.734 kg
[2]; 20 mg BID, End of Period (PBC, Week 24), Subjects as Initially Treated at Week 0, listed as APR
  Change From Baseline (kg) Mean ± SD: -1.05 kg and -1.05 ± 3.366 kg
[2]; [6]
  Change From Baseline (kg) Mean ± SD: -1.16 ± 4.255 kg
  Change From Baseline (kg) Median (Min, Max): −0.50 (−44.3, 14.0) kg
  Weight, kg Time Point Mean ± SD: 84.65 ± 20.541 kg
[2]; [7]
  Change From Baseline (kg) Median (Min, Max): −1.00 (−26.0, 12.5) kg
  Weight, kg Time Point Mean ± SD: 84.89 ± 20.190 kg
[2]; 20 mg BID, Week 52, Apremilast Subjects as Treated, listed as APR
  Change From Baseline (kg) Mean ± SD: -1.25 kg and -1.25 ± 4.223 kg
[2]; [8]
  Change From Baseline (kg) Median (Min, Max): −1.00 (−44.3, 14.0) kg
  Weight, kg Time Point Mean ± SD: 86.63 ± 19.721 kg
[2]; 20 mg BID, Week 78, Apremilast Subjects as Treated, listed as APR
  Change From Baseline (kg) Mean ± SD: -1.70 kg and -1.70 ± 6.192 kg
[2]; 20 mg BID, Weeks 0-16, m = 868
  Weight % Change Category 0%, n (%): 122 (14.1) n (%)
  Weight % Change Category <−20%, n (%): 0 n (%)
  Weight % Change Category >0% to ≦5%, n (%): 260 (30.0) n (%)
  Weight % Change Category >5% to ≦10%, n (%): 13 (1.5) n (%)
  Weight % Change Category >10% to ≦20%, n (%): 1 (0.1) n (%)
  Weight % Change Category >20%, n (%): 0 n (%)
  Weight % Change Category ≧−5% to <0%, n (%): 431 (49.7) n (%)
  Weight % Change Category ≧−10% to <−5%, n (%): 35 (4.0) n (%)
  Weight % Change Category ≧−20% to <−10%, n (%): 6 (0.7) n (%)
[2]; 30 mg BID
  weight decrease reported, subjects n (%): 15 (1.5%) n (%)
  observed weight loss of greater than 10%, subjects n (%): 7 (0.8%) n (%)
  percentage of subjects with weight change of -10% to <−5%: 4.1%
[2]; 30 mg BID, Apremilast-exposure Period
  weight loss of greater than 10%, subjects n (%): 36 (3.8%) n (%)
[2]; [9]
  Weight % Change Category 0%, n (%): 71 (7.5) n (%)
  Weight % Change Category <−20%, n (%): 0 n (%)
  Weight % Change Category >0% to ≦5%, n (%): 272 (28.8) n (%)
  Weight % Change Category >5% to ≦10%, n (%): 46 (4.9) n (%)
  Weight % Change Category >10% to ≦20%, n (%): 8 (0.8) n (%)
  Weight % Change Category >20%, n (%): 4 (0.4) n (%)
  Weight % Change Category ≧−5% to <0%, n (%): 387 (41.0) n (%)
  Weight % Change Category ≧−10% to <−5%, n (%): 120 (12.7) n (%)
  Weight % Change Category ≧−20% to <−10%, n (%): 36 (3.8) n (%)
[2]; [10]
  Change From Baseline (kg) Median (Min, Max): −1.00 (−23.0, 17.1) kg
  Weight, kg End of Period Mean ± SD: 83.61 ± 19.766 kg
[2]; 30 mg BID, End of Period (APR, apremilast exposure), Subjects as Initially Treated at Week 0, listed as APR
  Change From Baseline (kg) Mean ± SD: -1.26 kg and -1.26 ± 4.120 kg
[2]; [11]
  Change From Baseline (kg) Median (Min, Max): −0.60 (−13.7, 11.4) kg
  Weight, kg End of Period Mean ± SD: 83.90 ± 19.670 kg
[2]; 30 mg BID, End of Period (PBC, Week 24), Subjects as Initially Treated at Week 0, listed as APR
  Change From Baseline (kg) Mean ± SD: -0.97 kg and -0.97 ± 3.016 kg
[2]; [12]
  Change From Baseline (kg) Mean ± SD: -0.96 ± 5.534 kg
  Weight, kg Time Point Mean ± SD: 84.09 ± 20.309 kg
[2]; [13]
  Change From Baseline (kg) Median (Min, Max): −1.30 (−23.0, 11.8) kg
  Weight, kg Time Point Mean ± SD: 84.16 ± 19.253 kg
[2]; 30 mg BID, Week 52, Apremilast Subjects as Treated, listed as APR
  Change From Baseline (kg) Mean ± SD: -1.68 kg and -1.68 ± 4.049 kg
[2]; [14]
  Change From Baseline (kg) Median (Min, Max): −2.00 (−16.0, 17.1) kg
  Weight, kg Time Point Mean ± SD: 83.53 ± 18.202 kg
[2]; 30 mg BID, Week 78, Apremilast Subjects as Treated, listed as APR
  Change From Baseline (kg) Mean ± SD: -2.14 kg and -2.14 ± 4.605 kg
[2]; 30 mg BID, Weeks 0-16, m = 857
  Weight % Change Category 0%, n (%): 111 (13.0) n (%)
  Weight % Change Category <−20%, n (%): 0 n (%)
  Weight % Change Category >0% to ≦5%, n (%): 266 (31.0) n (%)
  Weight % Change Category >5% to ≦10%, n (%): 10 (1.2) n (%)
  Weight % Change Category >10% to ≦20%, n (%): 1 (0.1) n (%)
  Weight % Change Category >20%, n (%): 3 (0.4) n (%)
  Weight % Change Category ≧−5% to <0%, n (%): 424 (49.5) n (%)
  Weight % Change Category ≧−10% to <−5%, n (%): 35 (4.1) n (%)
  Weight % Change Category ≧−20% to <−10%, n (%): 7 (0.8) n (%)
[2]; all subjects who received apremilast
  weight decrease reported, subjects n (%): 25 (1.3%) n (%)
[2]; regardless of duration of exposure
  body weight of the majority of subjects: maintained their body weight within 0% and 5% of baseline
